Source: patent publication US6914045B2, “Glycopeptide antibiotics” (Wyeth Holdings Corporation, priority 2001, dated 2005)
In brackets after ≈: the same amount, converted by molar mass.

Tests used:
Assay in all cases: in vitro antibacterial evaluation, MIC by broth dilution
Format in all cases: cell-based
[1] = system: Enterococcus sp.; conditions: broth dilution, 18 hours at 35° C.
In short: (§1)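 Broth dilution per NCCLS M7-A2 in Mueller-Hinton II medium, inoculum 5×10^5 CFU/mL, antibiotic range 64-0.06 μg/mL. MIC taken as lowest concentration inhibiting growth; Gram-positive panel includes recent clinical isolates resistant to methicillin, penicillin and/or vancomycin.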

[2] = system: Staphylococcus sp.; conditions: broth dilution, 18 hours at 35° C.; for MIC Staphylococcus aureus (GC 1131): strain GC 1131; for MIC Staphylococcus aureus (ATCC 29213): strain ATCC 29213; for MIC Staphylococcus aureus (GC 3051): strain GC 3051; for MIC Staphylococcus aureus (GC 3053): strain GC 3053; for MIC Staphylococcus aureus (GC 4541): strain GC 4541; for MIC Staphylococcus aureus (GC 4542): strain GC 4542; for MIC Staphylococcus aureus-SMITH (GC 4543): strain GC 4543; for MIC Staphylococcus aureus (GC 4544): strain GC 4544; for MIC Staphylococcus aureus (GC 4545): strain GC 4545; for MIC Staphylococcus haemolyticus (GC 4546): strain GC 4546; for MIC Coagulase Negative Staphylococcus (GC 4547): strain GC 4547; for MIC Coagulase Negative Staphylococcus (GC 4548): strain GC 4548; for MIC Coagulase Negative Staphylococcus (GC 4549): strain GC 4549; for MIC Coagulase Negative Staphylococcus (GC 4551): strain GC 4551; for MIC Coagulase Negative Staphylococcus (GC 6257): strain GC 6257
In short: as §1

[3] = system: Streptococcus sp.; conditions: broth dilution, 18 hours at 35° C.
In short: as §1

[4] = system: Escherichia coli; conditions: 18 hours at 35° C.

## CC(c1ccccc1)C1NC(=O)CNC(=O)C(CO)NC(=O)C(C(O)C2CNC(=N)N2C2OC(CO)C(O)C(O)C2O)NC(=O)C(C(O)C2CNC(=N)N2)NC(=O)C(Cc2ccc(OC3OC(CO)C(OC4OC5COC(c6ccccc6)OC5C(O)C4O)C(O)C3O)c(I)c2)NC1=O (stereo not drawn) [Example 196]
[1]
  MIC Enterococcus avium (GC 4558): 32 µg/mL (≈ 21.2 µM)
  MIC Enterococcus faecalis (ATCC 29212): >64 µg/mL
  MIC Enterococcus faecalis (GC 2242): >64 µg/mL
  MIC Enterococcus faecalis (GC 2691): >64 µg/mL
  MIC Enterococcus faecalis (GC 3059): >64 µg/mL
  MIC Enterococcus faecalis (GC 4552): >64 µg/mL
  MIC Enterococcus faecalis (GC 4553): 64 µg/mL (≈ 42.4 µM)
  MIC Enterococcus faecalis (GC 4554): >64 µg/mL
  MIC Enterococcus faecalis (GC 6189): >64 µg/mL
  MIC Enterococcus faecium (GC 2243): 64 µg/mL (≈ 42.4 µM)
  MIC Enterococcus faecium (GC 4556): >64 µg/mL
  MIC Enterococcus faecium (GC 4557): 8 µg/mL (≈ 5.3 µM)
[1]; inoculum 5×10^5 CFU/mL, strain ATCC 29212
  MIC Enterococcus faecalis (ATCC 29212): >64 µg/mL
[1]; inoculum 5×10^5 CFU/mL, strain GC 2242
  MIC Enterococcus faecalis (GC 2242): >64 µg/mL
[1]; inoculum 5×10^5 CFU/mL, strain GC 2243
  MIC Enterococcus faecium (GC 2243): 64 µg/mL (≈ 42.4 µM)
[1]; inoculum 5×10^5 CFU/mL, strain GC 2691
  MIC Enterococcus faecalis (GC 2691): >64 µg/mL
[1]; inoculum 5×10^5 CFU/mL, strain GC 3059
  MIC Enterococcus faecalis (GC 3059): >64 µg/mL
[1]; inoculum 5×10^5 CFU/mL, strain GC 4552
  MIC Enterococcus faecalis (GC 4552): >64 µg/mL
[1]; inoculum 5×10^5 CFU/mL, strain GC 4553
  MIC Enterococcus faecalis (GC 4553): 64 µg/mL (≈ 42.4 µM)
[1]; inoculum 5×10^5 CFU/mL, strain GC 4554
  MIC Enterococcus faecalis (GC 4554): >64 µg/mL
[1]; inoculum 5×10^5 CFU/mL, strain GC 4556
  MIC Enterococcus faecium (GC 4556): >64 µg/mL
[1]; inoculum 5×10^5 CFU/mL, strain GC 4557
  MIC Enterococcus faecium (GC 4557): 8 µg/mL (≈ 5.3 µM)
[1]; inoculum 5×10^5 CFU/mL, strain GC 4558
  MIC Enterococcus avium (GC 4558): 32 µg/mL (≈ 21.2 µM)
[1]; inoculum 5×10^5 CFU/mL, strain GC 6189
  MIC Enterococcus faecalis (GC 6189): >64 µg/mL
[2]; inoculum 5×10^5 CFU/mL
  MIC Staphylococcus aureus (GC 1131): >64 µg/mL
[2]
  MIC Staphylococcus aureus (ATCC 29213): >64 µg/mL
  MIC Staphylococcus aureus (GC 1131): >64 µg/mL
  MIC Staphylococcus aureus (GC 3051): >64 µg/mL
  MIC Staphylococcus aureus (GC 3053): >64 µg/mL
  MIC Staphylococcus aureus (GC 4541): 64 µg/mL (≈ 42.4 µM)
  MIC Staphylococcus aureus (GC 4542): >64 µg/mL
  MIC Staphylococcus aureus-SMITH (GC 4543): >64 µg/mL
  MIC Staphylococcus aureus (GC 4544): >64 µg/mL
  MIC Staphylococcus aureus (GC 4545): 64 µg/mL (≈ 42.4 µM)
  MIC Staphylococcus haemolyticus (GC 4546): 32 µg/mL (≈ 21.2 µM)
  MIC Coagulase Negative Staphylococcus (GC 4547): 32 µg/mL (≈ 21.2 µM)
  MIC Coagulase Negative Staphylococcus (GC 4548): 64 µg/mL (≈ 42.4 µM)
  MIC Coagulase Negative Staphylococcus (GC 4549): 64 µg/mL (≈ 42.4 µM)
  MIC Coagulase Negative Staphylococcus (GC 4551): >64 µg/mL
  MIC Coagulase Negative Staphylococcus (GC 6257): 64 µg/mL (≈ 42.4 µM)
[3]
  MIC Streptococcus agalactiae (GC 4564): >64 µg/mL
  MIC Streptococcus pneumoniae (ATCC 6301): 64 µg/mL (≈ 42.4 µM)
  MIC Streptococcus pneumoniae (GC 1894): 64 µg/mL (≈ 42.4 µM)
  MIC Streptococcus pneumoniae (GC 4565): 64 µg/mL (≈ 42.4 µM)
  MIC Streptococcus pyogenes (GC 4563): 32 µg/mL (≈ 21.2 µM)
[3]; inoculum 5×10^5 CFU/mL, strain ATCC 6301
  MIC Streptococcus pneumoniae (ATCC 6301): 64 µg/mL (≈ 42.4 µM)
[3]; inoculum 5×10^5 CFU/mL, strain GC 1894
  MIC Streptococcus pneumoniae (GC 1894): 64 µg/mL (≈ 42.4 µM)
[3]; inoculum 5×10^5 CFU/mL, strain GC 4563
  MIC Streptococcus pyogenes (GC 4563): 32 µg/mL (≈ 21.2 µM)
[3]; inoculum 5×10^5 CFU/mL, strain GC 4564
  MIC Streptococcus agalactiae (GC 4564): >64 µg/mL
[3]; inoculum 5×10^5 CFU/mL, strain GC 4565
  MIC Streptococcus pneumoniae (GC 4565): 64 µg/mL (≈ 42.4 µM)
[4]
  MIC Escherichia coli (ATCC 25922): 64 µg/mL (≈ 42.4 µM)
  MIC Escherichia coli (GC 4559): 64 µg/mL (≈ 42.4 µM)
  MIC Escherichia coli (GC 4560): 8 µg/mL (≈ 5.3 µM)

## CC(c1ccccc1)C1NC(=O)CNC(=O)C(CO)NC(=O)C(CC2CN(Cc3ccccc3)C(=NCc3ccccc3)N2C2OC(CO)C(O)C(O)C2O)NC(=O)C(CC2CN(Cc3ccccc3)C(=NCc3ccccc3)N2Cc2ccccc2)NC(=O)C(Cc2ccc(OC3OC(CO)C(OC4OC(CO)C(O)C(O)C4O)C(O)C3O)cc2)NC1=O (stereo not drawn) [Example 73, Cyclo[3-[1,3-benzyl-2-(benzylimino)imidazolidin-4-yl]alanyl-3-[1-benzyl-2-(benzylimino)-3-hexopyranosylimidazolidin-4-yl]alanylserylglycyl-β-methylphenylalanyl-O-(4-O-hexopyranosylhexopyranosyl)tyrosyl]]
[1]; Enterococcus avium (GC 4558)
  MIC Enterococcus avium (GC 4558): 128 µg/mL (≈ 74.7 µM)
[1]; Enterococcus faecalis (ATCC 29212)
  MIC Enterococcus faecalis (ATCC 29212): >128 µg/mL
[1]; Enterococcus faecalis (GC 4552)
  MIC Enterococcus faecalis (GC 4552): >128 µg/mL
[1]; Enterococcus faecalis (GC 4553)
  MIC Enterococcus faecalis (GC 4553): >128 µg/mL
[1]; Enterococcus faecalis (GC 4554)
  MIC Enterococcus faecalis (GC 4554): >128 µg/mL
[1]; Enterococcus faecalis (GC 6189)
  MIC Enterococcus faecalis (GC 6189): >128 µg/mL
[1]; Enterococcus faecium (GC 2243)
  MIC Enterococcus faecium (GC 2243): >128 µg/mL
[1]; Enterococcus faecium (GC 4556)
  MIC Enterococcus faecium (GC 4556): >128 µg/mL
[1]; Enterococcus faecium (GC 4557)
  MIC Enterococcus faecium (GC 4557): 128 µg/mL (≈ 74.7 µM)
[1]
  MIC Enterococcus avium (GC 4558): 128 µg/mL (≈ 74.7 µM)
  MIC Enterococcus faecalis (ATCC 29212): >128 µg/mL
  MIC Enterococcus faecalis (GC 2242): >128 µg/mL
  MIC Enterococcus faecalis (GC 2691): >128 µg/mL
  MIC Enterococcus faecalis (GC 3059): >128 µg/mL
  MIC Enterococcus faecalis (GC 4552): >128 µg/mL
  MIC Enterococcus faecalis (GC 4553): >128 µg/mL
  MIC Enterococcus faecalis (GC 4554): >128 µg/mL
  MIC Enterococcus faecalis (GC 6189): >128 µg/mL
  MIC Enterococcus faecium (GC 2243): >128 µg/mL
  MIC Enterococcus faecium (GC 4556): >128 µg/mL
  MIC Enterococcus faecium (GC 4557): 128 µg/mL (≈ 74.7 µM)
[1]; strain GC 2242
  MIC Enterococcus faecalis (GC 2242): >128 µg/mL
[1]; strain GC 2691
  MIC Enterococcus faecalis (GC 2691): >128 µg/mL
[1]; strain GC 3059
  MIC Enterococcus faecalis (GC 3059): >128 µg/mL
[2]
  MIC Staphylococcus aureus (ATCC 29213): >128 µg/mL
  MIC Staphylococcus aureus (GC 1131): >128 µg/mL
  MIC Staphylococcus aureus (GC 3051): >128 µg/mL
  MIC Staphylococcus aureus (GC 3053): >128 µg/mL
  MIC Staphylococcus aureus (GC 4541): >128 µg/mL
  MIC Staphylococcus aureus (GC 4542): >128 µg/mL
  MIC Staphylococcus aureus-SMITH (GC 4543): >128 µg/mL
  MIC Staphylococcus aureus (GC 4544): >128 µg/mL
  MIC Staphylococcus aureus (GC 4545): >128 µg/mL
  MIC Staphylococcus haemolyticus (GC 4546): >128 µg/mL
  MIC Coagulase Negative Staphylococcus (GC 4547): >128 µg/mL
  MIC Coagulase Negative Staphylococcus (GC 4548): >128 µg/mL
  MIC Coagulase Negative Staphylococcus (GC 4549): >128 µg/mL
  MIC Coagulase Negative Staphylococcus (GC 4551): >128 µg/mL
  MIC Coagulase Negative Staphylococcus (GC 6257): >128 µg/mL
[3]
  MIC Streptococcus agalactiae (GC 4564): >128 µg/mL
  MIC Streptococcus pneumoniae (ATCC 6301): 128 µg/mL (≈ 74.7 µM)
  MIC Streptococcus pneumoniae (GC 1894): 64 µg/mL (≈ 37.3 µM)
  MIC Streptococcus pneumoniae (GC 4565): 128 µg/mL (≈ 74.7 µM)
  MIC Streptococcus pyogenes (GC 4563): >128 µg/mL
[3]; strain ATCC 6301
  MIC Streptococcus pneumoniae (ATCC 6301): 128 µg/mL (≈ 74.7 µM)
[3]; strain GC 1894
  MIC Streptococcus pneumoniae (GC 1894): 64 µg/mL (≈ 37.3 µM)
[3]; strain GC 4563
  MIC Streptococcus pyogenes (GC 4563): >128 µg/mL
[3]; strain GC 4564
  MIC Streptococcus agalactiae (GC 4564): >128 µg/mL
[3]; strain GC 4565
  MIC Streptococcus pneumoniae (GC 4565): 128 µg/mL (≈ 74.7 µM)
[4]
  MIC Escherichia coli (ATCC 25922): >128 µg/mL
  MIC Escherichia coli (GC 4559): >128 µg/mL
  MIC Escherichia coli (GC 4560): 16 µg/mL (≈ 9.34 µM)
